Assay results: patent US12122764B2, “IKAROS zinc finger family degraders and uses thereof” (Gilead Sciences, Inc., priority 2021, dated 2024)

The compounds below were run against T1, IKZF2 (Homo sapiens, UniProt Q96SW2+Q9UKS7) (assay: HiBiT protein tagging assay, in vitro IKZF2 degradation (HEK293)). Details: IKZF2-HiBiT reporter Flp-In T-REx HEK293 cells, doxycycline-induced, compound overnight (18-24 hr), normalized to DMSO control.
T1 construct: expressed in transfected cells
Format: cell-based
Method: In vitro degradation of IKZF1 and IKZF2 was measured using HiBiT protein tagging and detection technology (Promega).
HiBiT technology (Promega) was used to develop the quantitative assays to measure the cellular IKZFs level by tagging an 11 amino acid HiBit peptides VSGWRLFKKIS (SEQ ID NO:1) to the protein of interest. Reporter plasmids were generated by fusing a linker sequence (GSSGGSSG; SEQ ID NO:2) followed by the HiBiT tag at the C terminus of IKZF1 and IKZF2. The fusion fragments were subsequently cloned into pcDNA5 pcDNA™5/FRT/TO plasmids (Thermo Fisher, cat #V652020) downstream of the Tetracycline operator. The resulting plasmids were co-transfected with pOG44 Flp-Recombinase Expression Vector (Thermo Fisher, cat #V600520) into Flp-In™ T-REx HEK293 line (Thermo Fisher, cat #R78077) and a stable cell pool was selected by adding 100 μg/ml of Hygromycin (Thermo Fisher, cat #10687010). The reporter cell enabled Tet-On inducible reporter expression from a single copy of the integrated gene.
On Day 1, Cells were grown to ˜80% confluency in TC medium (DMEM Glutamax (Gibco10569), 10% Tet free FBS (Takara 631106), and PenStrep Glutamin (Gibco 10378)) in tissue culture flasks. Doxycycline was then added to a final concentration of 1 μg/ml to induce reporter expression at 37° C. overnight.
On Day 2, 125 nL of serially-diluted solution of testing compounds were dispensed into 384-well white solid assay plates via ECHO acoustic liquid handler. Cells were lifted by 0.25% Trypsin (Gibco 25200) then pelleted by centrifugation (Beckman Avanti J-E) at 500×g for 5 min. Cell pellets were resuspended in TC medium at the concentration of 3e5/mL and 25 μL of cell suspension were added into each well of compound-spotted plates. The plates were returned to a 37° C. incubator overnight (18-24 hr).
On Day 3, assay plates were removed from the TC incubator and 25 μL of Nano-Glo lytic detection system (Promega, cat #N3030) was added to each well. Plates were incubated at r.t. for 3 min with shaking, and luminescence was read using an Envision reader (Perkin Elmer).
All raw data was normalized to DMSO control (final concentration: 0.5%) wells as POC and plotted out for EC50 and Dmax (Maximum degradation at the highest concentration tested in the assay).

T1 sequence (Q9UKS7 1-500 isoform Q9UKS7-2): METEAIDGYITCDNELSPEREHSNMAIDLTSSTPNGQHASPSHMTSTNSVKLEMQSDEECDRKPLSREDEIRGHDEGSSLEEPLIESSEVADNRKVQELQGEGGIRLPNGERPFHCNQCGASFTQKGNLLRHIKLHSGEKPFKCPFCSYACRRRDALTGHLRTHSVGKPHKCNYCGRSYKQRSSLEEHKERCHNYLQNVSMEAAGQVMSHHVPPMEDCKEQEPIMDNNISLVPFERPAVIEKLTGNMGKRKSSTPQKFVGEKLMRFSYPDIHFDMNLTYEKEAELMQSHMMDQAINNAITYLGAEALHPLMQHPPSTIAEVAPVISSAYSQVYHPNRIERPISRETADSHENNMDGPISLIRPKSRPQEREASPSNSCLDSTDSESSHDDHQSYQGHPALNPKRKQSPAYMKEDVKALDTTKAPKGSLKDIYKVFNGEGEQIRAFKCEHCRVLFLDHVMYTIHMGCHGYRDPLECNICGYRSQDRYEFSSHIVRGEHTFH
T1 sequence (Q96SW2 whole entry): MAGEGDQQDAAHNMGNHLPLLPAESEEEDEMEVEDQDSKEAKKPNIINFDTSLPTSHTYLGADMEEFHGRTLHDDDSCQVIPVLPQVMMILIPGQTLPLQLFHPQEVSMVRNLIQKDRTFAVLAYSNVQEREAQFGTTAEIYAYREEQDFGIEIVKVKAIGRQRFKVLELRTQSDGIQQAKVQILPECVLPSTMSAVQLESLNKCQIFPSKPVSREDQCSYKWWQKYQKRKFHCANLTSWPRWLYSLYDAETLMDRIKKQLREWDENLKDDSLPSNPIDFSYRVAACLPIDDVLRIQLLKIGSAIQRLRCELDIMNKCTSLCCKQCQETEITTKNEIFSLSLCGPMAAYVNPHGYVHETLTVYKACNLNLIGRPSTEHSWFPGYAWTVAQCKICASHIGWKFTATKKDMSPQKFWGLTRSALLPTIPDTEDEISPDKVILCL
T1 sequence (Q16531 whole entry partner): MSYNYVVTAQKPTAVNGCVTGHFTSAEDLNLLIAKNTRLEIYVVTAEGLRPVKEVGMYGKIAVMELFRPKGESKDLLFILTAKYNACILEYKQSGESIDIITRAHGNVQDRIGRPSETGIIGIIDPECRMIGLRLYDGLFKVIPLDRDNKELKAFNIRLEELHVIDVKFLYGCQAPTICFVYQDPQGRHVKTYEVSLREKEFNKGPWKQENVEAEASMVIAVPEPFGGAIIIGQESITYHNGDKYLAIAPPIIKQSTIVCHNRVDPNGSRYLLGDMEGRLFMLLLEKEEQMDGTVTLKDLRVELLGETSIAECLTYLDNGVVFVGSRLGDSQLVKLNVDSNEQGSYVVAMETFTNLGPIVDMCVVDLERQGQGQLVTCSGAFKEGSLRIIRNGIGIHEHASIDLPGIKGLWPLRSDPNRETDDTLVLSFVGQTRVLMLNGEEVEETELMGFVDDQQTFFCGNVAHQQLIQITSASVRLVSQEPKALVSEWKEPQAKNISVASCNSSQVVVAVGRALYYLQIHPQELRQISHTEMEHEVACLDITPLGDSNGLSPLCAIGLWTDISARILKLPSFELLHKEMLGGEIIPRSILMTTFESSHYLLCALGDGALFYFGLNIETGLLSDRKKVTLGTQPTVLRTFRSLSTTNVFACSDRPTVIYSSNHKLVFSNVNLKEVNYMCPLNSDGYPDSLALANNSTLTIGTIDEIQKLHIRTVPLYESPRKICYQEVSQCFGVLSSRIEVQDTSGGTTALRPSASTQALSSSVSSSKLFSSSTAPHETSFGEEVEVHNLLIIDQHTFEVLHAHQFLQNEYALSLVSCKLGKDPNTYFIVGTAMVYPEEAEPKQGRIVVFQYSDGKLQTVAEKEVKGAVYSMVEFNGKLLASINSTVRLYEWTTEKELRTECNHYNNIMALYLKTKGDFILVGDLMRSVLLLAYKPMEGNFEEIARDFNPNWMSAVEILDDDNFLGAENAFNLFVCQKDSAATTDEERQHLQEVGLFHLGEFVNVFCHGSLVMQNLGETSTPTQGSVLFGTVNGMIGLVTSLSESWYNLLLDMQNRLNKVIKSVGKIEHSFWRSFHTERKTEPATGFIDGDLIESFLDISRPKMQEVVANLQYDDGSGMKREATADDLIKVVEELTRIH

Structure (SMILES)	IKZF2 Dmax (maximum degradation at the highest concentration tested)
O=C1CCC(N2Cc3cc(O[C@@H]4CN(Cc5ccccc5)CC[C@H]4NCC(F)(F)F)ccc3C2=O)C(=O)N1 (relative stereo) [Example 45, 3-(5-(((3,4-trans)-1-benzyl-4-((2,2,2-trifluoroethyl)amino)piperidin-3-yl)oxy)-1-oxoisoindolin-2-yl)piperidine-2,6-dione]	44%
O=C1CCC(N2Cc3cc(O[C@@H]4CN(Cc5ccccc5)CC[C@H]4N4CC(Oc5ccccc5Cl)C4)ccc3C2=O)C(=O)N1 (relative stereo) [Example 54, 3-(5-(((3,4-trans)-1-benzyl-4-(3-(2-chlorophenoxy)azetidin-1-yl)piperidin-3-yl)oxy)-1-oxoisoindolin-2-yl)piperidine-2,6-dione]	94%
O=C1CCC(N2Cc3cc(O[C@@H]4CN(Cc5ccccc5)CC[C@H]4NC(=O)NCc4ccccc4)ccc3C2=O)C(=O)N1 (relative stereo) [Example 55, 1-benzyl-3-((3,4-trans)-1-benzyl-3-((2-(2,6-dioxopiperidin-3-yl)-1-oxoisoindolin-5-yl)oxy)piperidin-4-yl)urea]	91%

Same assay, conditions: IKZF2-HiBiT reporter Flp-In T-REx HEK293 cells, doxycycline-induced, compound overnight (18-24 hr), normalized to DMSO control; read-out: IKZF2 Dmax (maximum degradation at the highest concentration tested)

Structure (SMILES)	Dmax
O=C1CCC(N2Cc3cc(O[C@@H]4CN(CC(F)(F)F)CC[C@H]4NCc4ccccc4)ccc3C2=O)C(=O)N1 (relative stereo) [Example 40, 3-(5-((trans-4-(benzylamino)-1-(2,2,2-trifluoroethyl)piperidin-3-yl)oxy)-1-oxoisoindolin-2-yl)piperidine-2,6-dione]	57%
N[C@@H]1CCN(Cc2ccccc2)C[C@H]1Oc1ccc2c(c1)CN(C1CCC(=O)NC1=O)C2=O (relative stereo) [Example 42, 3-(5-((trans-4-amino-1-benzylpiperidin-3-yl)oxy)-1-oxoisoindolin-2-yl)piperidine-2,6-dione]	96%
O=C1CCC(N2Cc3cc(O[C@H]4CN(Cc5ccccc5)CC[C@@H]4NCc4ccccc4)ccc3C2=O)C(=O)N1 (stereo partly shown) [Example 2a]	97%
O=C1CCC(N2Cc3cc(O[C@H]4CN(c5ccccc5)C[C@@H]4NCc4ccccc4)ccc3C2=O)C(=O)N1 (stereo partly drawn) [Example 39, 3-(5-(((3S,4S)-4-(benzylamino)-1-phenylpyrrolidin-3-yl)oxy)-1-oxoisoindolin-2-yl)piperidine-2,6-dione]	39%
N[C@H]1CCN(Cc2ccccc2)C[C@@H]1Oc1ccc2c(c1)CN(C1CCC(=O)NC1=O)C2=O (stereo partly shown) [Example 42a]	98%
O=C1CCC(N2Cc3cc(OC4CN(Cc5ccccc5)CCC4Nc4ccccc4)ccc3C2=O)C(=O)N1 (stereo not drawn) [Example 43, 3-(5-(((3,4-trans)-1-benzyl-4-(phenylamino)piperidin-3-yl)oxy)-1-oxoisoindolin-2-yl)piperidine-2,6-dione]	48%
O=C1CCC(N2Cc3cc(OC4CN(Cc5ccccc5)CCC4NC(=O)c4ccccc4)ccc3C2=O)C(=O)N1 (stereo not drawn) [Example 44, N-((3,4-trans)-1-benzyl-3-((2-(2,6-dioxopiperidin-3-yl)-1-oxoisoindolin-5-yl)oxy)piperidin-4-yl)benzamide]	79%
CS(=O)(=O)NC1CCN(Cc2ccccc2)CC1Oc1ccc2c(c1)CN(C1CCC(=O)NC1=O)C2=O (stereo not drawn) [Example 47, N-((3,4-trans)-1-benzyl-3-((2-(2,6-dioxopiperidin-3-yl)-1-oxoisoindolin-5-yl)oxy)piperidin-4-yl)methanesulfonamide]	62%
CC(=O)NC1CCN(Cc2ccccc2)CC1Oc1ccc2c(c1)CN(C1CCC(=O)NC1=O)C2=O (stereo not drawn) [Example 48, N-((3,4-trans)-1-benzyl-3-((2-(2,6-dioxopiperidin-3-yl)-1-oxoisoindolin-5-yl)oxy)piperidin-4-yl)acetamide]	69%
O=C1CCC(N2Cc3cc(OC4CN(CC(F)F)CCC4NCc4ccccc4)ccc3C2=O)C(=O)N1 (stereo not drawn) [Example 49, 3-(5-(((3,4-trans)-4-(benzylamino)-1-(2,2-difluoroethyl)piperidin-3-yl)oxy)-1-oxoisoindolin-2-yl)piperidine-2,6-dione]	69%

Second part, the compound after the results:

Dmax	Structure (SMILES)
103%	CC(C)N[C@H]1CCN(Cc2nccs2)C[C@@H]1Oc1ccc2c(c1)CN(C1CCC(=O)NC1=O)C2=O (stereo partly shown) [Example 62]
98%	CCN[C@H]1CCN(Cc2ccc(F)cc2)C[C@@H]1Oc1ccc2c(c1)CN(C1CCC(=O)NC1=O)C2=O (stereo partly shown) [Example 64]
99%	CCN(CC)[C@H]1CCN(Cc2ccc(F)cc2)C[C@@H]1Oc1ccc2c(c1)CN(C1CCC(=O)NC1=O)C2=O (stereo partly shown) [Example 65]
34%	CC(C)N[C@H]1CCN(Cc2ccn(C)n2)C[C@@H]1Oc1ccc2c(c1)CN(C1CCC(=O)NC1=O)C2=O (stereo partly shown) [Example 66]
64%	CC(C)N[C@H]1CCN(Cc2ncco2)C[C@@H]1Oc1ccc2c(c1)CN(C1CCC(=O)NC1=O)C2=O (stereo partly shown) [Example 67]
74%	CC(C)N[C@H]1CCN(Cc2cnccn2)C[C@@H]1Oc1ccc2c(c1)CN(C1CCC(=O)NC1=O)C2=O (stereo partly shown) [Example 68]
